This passage reports MIC and IC50 results from PMC12736951, “Design, Synthesis, and Biological Evaluation of 6″-Modified Apramycin Derivatives to Overcome Aminoglycoside Resistance” (Pharmaceutics, 2025).

The subject of one experiment is E. coli ATCC 25922. Description: MIC, broth microdilution. The format is cell-based, Escherichia coli. Particulars: Escherichia coli, ATCC25922, Table 1, read-out: MIC. An excerpt:
(§1) The microbial strains used in this study were obtained from the collection of the Gause Institute of New Antibiotics. The control strains included in the analysis were S. aureus ATCC 29213, E. coli ATCC 25922, P. aeruginosa ATCC 27853, M. smegmatis ATCC 607. Clinical isolates E. coli MAR17-1350, K. pneumoniae APEX-5, K. pneumoniae MAR14-3395, and K. pneumoniae MAR18-1752 with multidrug resistance, including resistance to aminoglycosides were kindly provided by the Research Institute of Antimicrobial Chemotherapy (RIAC) of the Smolensk State Medical University, Smolensk. The microbial cultures were stored at −75 °C in trypticase soy broth (Becton, Dickinson, France) containing 10–15% glycerol. Storage was carried out in accordance with CLSI guidelines. Prior to experimentation, the bacterial strains were revived from cryopreservation by inoculating them onto trypticase soy agar (Becton, Dickinson, France) and incubating at (36 ± 1) °C for 16–24 h. Individual morphologically homogeneous colonies were then suspended in sterile physiological saline, and the turbidity of the suspension was adjusted to 0.5 McFarland units using a DEN-1 spectrophotometer (Biosan, Riga, Latvia), which corresponds to a concentration of 1.5 × 10^8 CFU/mL.
(§2) The samples were dissolved in sterile distilled water, depending on the physicochemical properties of the compounds under investigation, to a concentration of 10,000 µg/mL. Working solutions were then prepared by serial dilution, resulting in concentrations ranging from 64 µg/mL to 0.125 µg/mL.
(§3) Activity was evaluated by determining the minimum inhibitory concentration (MIC) values using the microdilution method in Mueller–Hinton Broth (Beckton and Dickinson, Le Pont-de-Claix, France), in accordance with the standard procedure for assessing the antimicrobial susceptibility of microorganisms.
(§4) The analysis was conducted in 96-well microtiter plates (Medpolymer, Saint Petersburg, Russia). The bacterial inoculum was introduced within 15 min of preparation. MIC values were determined after incubation for 15–18 h at (36 ± 1) °C. Microbial growth in the presence of the tested compounds was compared to the growth control (without exposure to the test samples). The MIC was defined as the lowest concentration at which visible microbial growth was inhibited.
(§5) To ensure the accuracy of the results, the control antibiotics kanamycin A, gentamycin, and tobramycin (Abcr GmbH, Karlsruhe, Germany) were included, along with standard reference strains: E. coli ATCC 25922. The MIC values for kanamycin A were determined as follows: E. coli ATCC 25922—1–4 µg/mL [22]. For gentamycin, the MIC values were E. coli ATCC 25922–0.25–1 µg/mL [23]. For tobramycin, the MIC values were E. coli ATCC 25922–0.25–1 µg/mL [23]. The MIC values of the reference strains were required to fall within the acceptable ranges specified in [24], provided that standard assay conditions were maintained.
(In general: Broth dilution looks for growth in wells or tubes with falling amounts of substance.)

The subject of the next experiment is M. smegmatis ATCC 607. Description: MIC, broth microdilution. The format is cell-based, Mycobacterium smegmatis. The following applies: Mycolicibacterium smegmatis, ATCC607, Table 1.
Excerpt: as §1, §2, §3, §4, §5

In the next experiment the test system is E. coli MAR17-1350. Description: MIC, MDR clinical isolate. In kind it is cell-based. Particulars: Escherichia coli, MAR171350; E. coli MAR17-1350, MDR clinical isolate (NDM-5); read-out: MIC.
Excerpt: as §1, §2, §3, §4, §5

For a further experiment, the system named is K. pneumoniae APEX-5. Description: MIC, MDR clinical isolate. The format is cell-based. The following applies: Klebsiella pneumoniae, APEX5; K. pneumoniae APEX-5, MDR clinical isolate (NDM-16); read-out: MIC.
Excerpt: as §1, §2, §3, §4, §5

A further experiment relates to K. pneumoniae MAR14-3395. Description: MIC, MDR clinical isolate. In kind it is cell-based. The following applies: Klebsiella pneumoniae, MAR143395; K. pneumoniae MAR14-3395, MDR clinical isolate (NDM-1 + OXA-244); read-out: MIC.
Excerpt: as §1, §2, §3, §4, §5

Another experiment concerns K. pneumoniae MAR18-1752. Description: MIC, MDR clinical isolate. The format is cell-based. The following applies: Klebsiella pneumoniae, MAR181752; K. pneumoniae MAR18-1752, MDR clinical isolate (NDM-1); read-out: MIC.
Excerpt: as §1, §2, §3, §4, §5

In another experiment the test system is E. coli JW5503 SmR. Description: MIC against transformant carrying ANT(3″). The format is cell-based. The following applies: Escherichia coli, JW5503SMR. The protocol: (§6) The determination of the MIC values was performed on five strains from the working collection of MSU. E. coli JW5503 [25], which lacked a kanamycin resistance cassette that had been removed as per the method outlined in [26], and a strain derived from this strain through in vitro selection with kanamycin. […] Strains containing AG-modifying enzymes were obtained through the transformation of E. coli JW5503 with plasmids that carried cassettes of resistance, namely pCRISPomyces-2–AAC(3)-IV (Addgene #61737), pdualrep2–APH(3′)-II [27] and pt67–ANT(3″). The MIC determination was performed as described for JW5503 in [19].

A further experiment deals with E. coli JW5503 ApmR. Put plainly: MIC against transformant carrying AAC(3)-IV. The format is cell-based. Particulars: Escherichia coli, JW5503APMR. The protocol: as §6
For experiment [1], the system named is HEK293T human embryonic kidney cell line. Description: Cytotoxicity, MTT test. Particulars: HEK-293T, 72 h, 2-250 µg/mL, read-out: IC50, viability of HEK293T cells. In kind it is cell-based. How it is done: The MTT test was performed in order to evaluate the effect of the compounds on eukaryotic cells’ survivability. Compounds 5a,b, 8a,b, and apramycin, as the reference drug, were tested on HEK293T human embryonic kidney cell line (ATCC). Compounds 5a,b, 8a,b, and apramycin were prepared as water solutions with a 50 mg/mL concentration. The HEK293T cell line was cultivated in DMEM/F-12 medium (Paneco LLC, Moscow, Russia) containing 10% FBS, 50 µg/mL penicillin, and 50 µg/mL streptomycin (Thermo Fisher Scientific, USA) at 37 °C in 5% CO2. Triplicates on 96-well plates were used, and 2500 HEK293T cells were seeded in 140 µL of DMEM/F-12 medium in each well during day one. The next day, compounds in twofold successive dilutions were added to these plates (concentrations in wells ranged between 2 and 250 µg/mL for 5a, 5b, and 8a, 8b). Plates were incubated for 72 h at 37 °C in 5% CO2. Afterwards, 0.5 mg/mL of the MTT reagent (Paneco LLC, Moscow, Russia) was added to each well. After 2 h of incubation, the media with MTT was replaced with 140 µL of DMSO, and all plates were placed on a shaker for 10 min for formazan to dissolve. Finally, the absorbance at a 555 nm wavelength was measured on all plates via the plate reader Victor X5 (PerkinElmer, Waltham, MA, USA). The data were then normalized, and dose–response curves and IC50 were calculated by means of GraphPad Prism version 8.0.2. (GraphPad Software, Inc., San Diego, CA, USA).

Some results are limits rather than exact numbers.

As a reminder, the MIC is the least concentration at which growth counts as inhibited. What is called IC50 is the point on the concentration scale where inhibition reaches its midpoint.

With `CNC1C(OC2OC(CNCCN)C(N)C(O)C2O)OC2CC(N)C(OC3C(N)CC(N)C(O)C3O)OC2C1O` (stereo not drawn) [Compound 5a, 6″-((2-Aminoethyl-1)-amino)-6″-deoxyapramycin acetate], the MIC in the experiment on E. coli ATCC 25922 was 2 µg/mL; with M. smegmatis ATCC 607 it was 0.25 µg/mL; in the experiment on E. coli MAR17-1350 it was 4 µg/mL; with K. pneumoniae APEX-5, 4 µg/mL; in the experiment with K. pneumoniae MAR14-3395 it was 4 µg/mL; with K. pneumoniae MAR18-1752, 4 µg/mL. The results for the minimal inhibitory concentration (MIC) in the experiment with E. coli JW5503 SmR and against E. coli JW5503 ApmR were 32 µg/mL and over 256 µg/mL, respectively. In addition, the half-inhibitory concentration (IC50) in experiment [1] came to 243 ± 7 µg/mL.
Consider `CNC1C(OC2OC(CNCCCNC(=N)N)C(N)C(O)C2O)OC2CC(N)C(OC3C(N)CC(N)C(O)C3O)OC2C1O` (stereo not drawn) [Compound 8b, 6″-((3-Guanidinopropyl-1)-amino)-6″-deoxyapramycin acetate], for which the minimum inhibitory concentration (MIC) was 1 µg/mL with E. coli ATCC 25922; 0.125 µg/mL in the experiment on M. smegmatis ATCC 607; 4 µg/mL in the experiment on E. coli MAR17-1350; 2 µg/mL in the experiment on K. pneumoniae APEX-5; 4 µg/mL in the experiment on K. pneumoniae MAR14-3395; 2 µg/mL with K. pneumoniae MAR18-1752. In addition, the results for the MIC in the experiment on E. coli JW5503 SmR and in the experiment with E. coli JW5503 ApmR were 32 µg/mL and over 256 µg/mL, respectively. Moreover, the 50% inhibitory concentration (IC50) in experiment [1] was over 250 µg/mL.
`CNC1C(OC2OC(CNCCNC(=N)N)C(N)C(O)C2O)OC2CC(N)C(OC3C(N)CC(N)C(O)C3O)OC2C1O` (stereo not drawn) [Compound 8a, 6″-((2-Guanidinoethyl-1)-amino)-6″-deoxyapramycin acetate]: the minimum inhibitory concentration (MIC) came to 1 µg/mL with E. coli ATCC 25922; 0.125 µg/mL with M. smegmatis ATCC 607; 4 µg/mL in the experiment with E. coli MAR17-1350; 1 µg/mL with K. pneumoniae APEX-5; 2 µg/mL with K. pneumoniae MAR14-3395; 2 µg/mL in the experiment on K. pneumoniae MAR18-1752. Moreover, the results for the MIC in the experiment with E. coli JW5503 SmR and with E. coli JW5503 ApmR were 16 µg/mL and over 256 µg/mL, respectively. In addition, the IC50 in experiment [1] was over 250 µg/mL.
With `CNC1C(OC2OC(CNCCCN)C(N)C(O)C2O)OC2CC(N)C(OC3C(N)CC(N)C(O)C3O)OC2C1O` (stereo not drawn) [Compound 5b, 6″-((3-Aminopropyl-1)-amino)-6″-deoxyapramycin acetate], the MIC with E. coli ATCC 25922 was found to be 2 µg/mL; in the experiment with M. smegmatis ATCC 607, 0.25 µg/mL; in the experiment with E. coli MAR17-1350 it was 8 µg/mL; in the experiment on K. pneumoniae APEX-5 it was 8 µg/mL; with K. pneumoniae MAR14-3395, 8 µg/mL; in the experiment on K. pneumoniae MAR18-1752 it was 8 µg/mL. For the same compound, the minimal inhibitory concentration (MIC) in the experiment with E. coli JW5503 SmR was 32 µg/mL; in the experiment on E. coli JW5503 ApmR it was over 256 µg/mL. Besides, the 50% inhibitory concentration (IC50) in experiment [1] is over 250 µg/mL.
